Source: patent publication US20200360471A1, “METHODS OF TREATING AND PREVENTING VIRAL INFECTIONS” (priority 2017, published 2020)
Peptide text beside a SMILES is read from it.

Columns and labels:
HPV6 and HPV11 = assay: HPV viral load (qPCR) in swabs of target wart; type: in vivo
Description: The treatment period was from day 0 till day 84. During the treatment period subjects visited the clinical unit on days 0, 14, 28, 56 and 84. A fixed dose of omiganan or placebo was applied once daily. Two follow up visits were scheduled on days 126 and 168. During study execution, vital signs were measured on days 0, 14, 28, 56 and 84. Pharmacodynamic assessments were performed on day 0 (pre-dose), 14, 28, 56 and 84, respectively. Punch biopsies were performed at the screening and on days 56 and 168. Subjects were dosed 84 consecutive days with approximately 24 hours between each treatment.
HPV viral load in swabs. Swabs were taken from the target wart (or site where target wart was) at every study visit. A quantitative PCR (qPCR) of the swabs was performed for HPV6 and HPV11 to determine the viral load of the specific HPV. Swab samples were collected at day 0, 14, 28, 56, 84 (EOT), […] and 168 (EOS). In FIGS. 22A and 22B, the qPCR was expressed as copies/μL and natural log transformed. In FIGS. 23A and 23B, the qPCR was expressed as copies/μL, natural log transformed and also corrected for the amount of DNA in the sample.

TLR7 [1] = assay: Ongoing inflammation in PBMC cultures: imiquimod 3 hrs followed by omiganan 21 hrs; type: cell-based, human
Description: (§1) Primary cell cultures were prepared in RPMI including 5% autologous plasma. Isolated PBMC cells were cultured in 96-well plates at a density of 0.5×10^6cells/well at 37° C., under humidified 5% CO2.
(§2) IL-1β, TNFα, IL-6 and IL-8 were measured simultaneously with a fixed electrochemoluminescence platform based on the sandwich ELISA principle of capture and detection antibodies, produced by MESO SCALE DISCOVERY (MSD, MESO SCALE QUICKPLEX SQ120). The applied assay was the V-PLEX PLUS pro-inflammatory cytokine panel II, including IL-1β, TNFα, IL-6 and IL-8. This assay includes manufacturer-provided control samples with indicated nominal values for comparison. These lyophilized controls, i.e. freeze-dried controls for IL-1β, TNFα, IL-6, IL-8, were prepared freshly at the time of use. QC samples were prepared from the calibrator at 3 different concentrations along the standard curve as multiple aliquots from a single batch and maintained at −20° C. Low, medium and high concentration controls were included in every multiplex assay run to control intra- and inter-assay variation. V-PLEX panels are specific for the detection of human chemokines and cytokines, and combinations have been validated by the manufacturer, to ensure no cross-reactivity.
Briefly, PBMC primary cultures were prepared from 4 donors. […] The readouts for the following cytokine and chemokine release were measured: IL-1β, IL-2, IL-4, IL-6, IL-8 HA, IL-8, IL-12p70, IL-13, IFN-γ, and TNF-α were measured. The cultures were prepared in duplicate.

TC-1 tumor [2] = assay: Tumor outgrowth and flow cytometry after intratumoral injections in TC-1 mice; type: in vivo
Description: Tumor growth was measured at days 9, 10, 12, 14, and 16.
Tumor growth was measured at day 9 (one day before injection), 10, 12, 14 and day 16 (at sacrifice).

TC-1 tumor [3] = assay: Tumor outgrowth in TC-1 mice in presence or absence of anti-neutrophil antibody aLy6G; type: in vivo
Description: 10, 12, and 14. Tumor growth was measured at days 11, 13, 15, 17, 20, and 22.

TLR3/RIG-1/Mda5 = assay: polyI:C-induced cytokine responses in PBMC cultures with peptide pre-treatment; type: cell-based, human; conditions: 5 or 25 μg/mL peptide, 30 min pre-treatment, 24 hrs
Description: as §1, §2
(§3) IFNα was quantified by a sandwich ELISA based on specific capture and detection antibodies for various matrices (MABTECH), according to the manufacturer's instructions. QC samples were prepared from the calibrator at 3 different concentrations along the standard curve as multiple aliquots from a single batch and maintained at −20° C.
as §3, with “IFNβ” for “IFNα”, “(PBL ASSAY SCIENCE),” for “(MABTECH),”, “C. freezer.” for “C.”
(§4) Briefly, PBMC primary cultures were prepared from 4 healthy donors (2 males, 2 females) as described above. […] The cultures were prepared in duplicate and the readouts for pan-IFNα and IFNβ (ELISA) were measured once. Five-point concentration-response curves were constructed for the various treatment conditions in the PBMC cultures, freshly isolated from 4 subjects.

TLR7 [4] = assay: imiquimod-induced cytokine responses in PBMC cultures with peptide pre-treatment; type: cell-based, human
Description: as §1, §2, §3
as §3, with “IFNβ” for “IFNα”, “(PBL ASSAY SCIENCE),” for “(MABTECH),”, “C. freezer.” for “C.”
as §4

TLR9 = assay: TLR9-mediated interferon responses in PBMC cultures (IFN-α ELISA); type: cell-based, human
Description: CpG motifs are present in a variety of DNA viruses and CpG signaling is relevant to host defense against viral infections. Briefly, PBMC primary cultures were prepared from 2 donors. […] E. coli ssDNA (5 μg/mL) or PBS (unstimulated). The readouts for IFN-α in cell supernatant were measured by ELISA.

[5] = omiganan 25, 12.5, 6.25 μg/mL added after 3 hour imiquimod
[6] = omiganan added after 3 hour imiquimod, effect less obvious
[7] = 5 or 25 μg/mL peptide, 30 min pre-treatment, 24 hrs
[8] = right-shift of imiquimod concentration response curves
[9] = 6.25 or 25 μg/mL omiganan 30min pre-incubation, 24hr

In the case of `CC[C@H](C)[C@H](N)C(=O)N[C@@H](CC(C)C)C(=O)N[C@@H](CCCNC(=N)N)C(=O)N[C@@H](Cc1c[nH]c2ccccc12)C(=O)N1CCC[C@H]1C(=O)N[C@@H](Cc1c[nH]c2ccccc12)C(=O)N[C@@H](Cc1c[nH]c2ccccc12)C(=O)N1CCC[C@H]1C(=O)N[C@@H](Cc1c[nH]c2ccccc12)C(=O)N[C@@H](CCCNC(=N)N)C(=O)N[C@@H](CCCNC(=N)N)C(=O)N[C@@H](CCCCN)C(N)=O` [omiganan, I L R W P W W P W R R K] (H-ILRWPWWPWRRK-NH2), the “viral load of HPV6 in swabs” value (HPV6 and HPV11; during omiganan treatment) is reported as “strong trend toward reduction”, the “HPV6 and HPV11 viral load compared to placebo” value (HPV6 and HPV11; swabs, qPCR, at EOT, p=0.0201) is reported as “statistical significant decrease” and the IL-1β response (TLR7 [1]; [5]) is reported as “did not significantly modify”. For the same compound, the IL-8 response (TLR7 [1]; [5]) was “significantly enhanced”, the IL-6 response (TLR7 [1]; [6]) was “enhanced” and the TNF-α response (TLR7 [1]; [6]) was “enhanced”. The “tumor outgrowth compared to PBS-treated mice” value (TC-1 tumor [2]; 30 nmol intratumoral on days 10, 12, 14) was “reduction in tumor outgrowth”, the “CD11c expression of Ly6C-low macrophages in TC-1 tumors (macrophage phenotype)” value (TC-1 tumor [2]; flow cytometry after three intratumoral injections) was “lower CD11c expression” and the “tumor outgrowth compared to PBS-treated mice” value (TC-1 tumor [3]; intratumoral on days 9, 11, 14, 16, 18, without aLy6G) was “reduction in tumor outgrowth”. For the same compound, the “reduction in tumor outgrowth” value (TC-1 tumor [3]; omiganan treated group also treated with aLy6G) was “not observed”, the “IL-6 responses to polyI:C (TLR3/RIG-1/Mda5)” value (TLR3/RIG-1/Mda5) was “did not significantly affect” and the “TNFα responses to polyI:C (TLR3/RIG-1/Mda5)” value (TLR3/RIG-1/Mda5) was “did not significantly affect”. For the same compound, the “polyI:C-driven IL-1β release” value (TLR3/RIG-1/Mda5) was “did not significantly affect”, the “spontaneous and polyI:C-driven IL-8 release” value (TLR3/RIG-1/Mda5) was “strongly inhibited” and the “interferon responses induced by polyI:C stimulation” value (TLR3/RIG-1/Mda5; PBMC of 4 donors) was “enhanced”. The “IL-6 responses to imiquimod (TLR7)” value (TLR7 [4]; [7]) was “inhibited”, the “TNFα responses to imiquimod (TLR7)” value (TLR7 [4]; [7]) was “inhibited” and the “interferon responses in the presence of imiquimod” value (TLR7 [4]; 5 or 25 μg/mL peptide, 30 min pre-treatment, 24 hrs, PBMC of 4 donors) was “induced strong interferon responses”. For the same compound, the “IL-1(3 responses to imiquimod (TLR7))” value (TLR7 [4]; [8]) was “inhibited”, the “IL-8 responses to imiquimod (TLR7)” value (TLR7 [4]; [8]) was “inhibited” and the “CpG-A IFN-α responses” value (TLR9; [9]) was “strongly enhanced”. The “CpG-B IFN-α responses” value (TLR9; [9]) was “did so strongly”, the “CpG-C IFN-α responses” value (TLR9; [9]) was “concentration-dependently enhanced” and the “ssDNA-driven IFN-α responses” value (TLR9; omiganan pre-incubation, E. coli ssDNA 5 μg/mL) was “initial inhibition of cytokine release at low omiganan concentrations, and an enhancement of cytokine release at higher omiganan concentrations”.
